Data: PubChem BioAssay AID977605 (Broad Institute, 2014)
The source made the active and inactive calls.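 How the source made its calls: active means fitted curve reaches 40% activation below the top valid tested dose, in every test run; inconclusive means test runs disagree on the call; inactive means the rest, including effects opposite to the expected direction.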

assay: endothelial E-selectin upregulation by compounds – imaging, HUVEC, cherry-picked samples, dose response (AID 977605); conditions: HUVEC E-selectin immunostaining, at 18 µM (top of the series), percent of TNF-alpha response over vehicle;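 further: signal is the share of imaged cells scored positive for E-selectin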

| SMILES | activation |
| --- | --- |
| C[C@@H]1CN([C@H](C)CO)C(=O)c2cccc(NC(=O)CCCCCC(=O)Nc3ccccc3N)c2O[C@H]1CN(C)Cc1ccc2c(c1)OCO2 | 0.253% (inactive) |

same assay, conditions: HUVEC E-selectin immunostaining, at 19.5 µM (top of the series), percent of TNF-alpha response over vehicle

| SMILES | activation |
| --- | --- |
| CC(C)NC(=O)N(C)C[C@H]1Oc2ccc(NC(=O)CCC(F)(F)F)cc2CC(=O)N([C@H](C)CO)C[C@@H]1C | -0.115% (inactive) |
| Cc1ccc(SCc2cc(=O)n(C)[nH]2)cc1 | 0.221% (inactive) |
| COc1ccc(S(=O)(=O)Nc2ccc3c(c2)C(=O)N([C@@H](C)CO)C[C@@H](C)[C@@H](CN(C)C(=O)Nc2cccc4ccccc24)O3)cc1 | -0.103% (inactive) |
| CCCN1CCN(C(=O)c2ccc(CS(=O)c3ccc(Cl)cc3)o2)CC1 (configuration not stated) | 0.214% (inactive) |
| C[C@H](CO)N1C[C@H](C)[C@@H](CN(C)Cc2ccc(C(=O)O)cc2)Oc2ccc(NC(=O)Nc3ccc(F)cc3)cc2CC1=O | 0.279% (inactive) |
| COC(=O)c1cc(S(=O)(=O)NCC2CCN(CCc3cccs3)CC2)c[nH]1 | 0.021% (inactive) |
| Cc1ccc(CNS(=O)(=O)c2ccc(C(F)(F)F)cc2)n1C | -0.139% (inactive) |
| CC(=O)NC1C(=O)N(CCN2CCOCC2)c2ccc(F)cc21 (configuration not stated) | -0.179% (inactive) |
| C[C@@H]1CN([C@@H](C)CO)C(=O)Cc2cc(NC(=O)Nc3ccc(F)cc3)ccc2O[C@H]1CN(C)C(=O)Nc1ccc(C(F)(F)F)cc1 | -0.14% (inactive) |
| Cc1noc(C)c1S(=O)(=O)Nc1ccc2c(c1)CC(=O)N([C@H](C)CO)C[C@H](C)[C@@H](CN(C)C(=O)Nc1cccc3ccccc13)O2 | -0.095% (inactive) |
| CC(C)NC(=O)Nc1ccc2c(c1)C(=O)N([C@@H](C)CO)C[C@H](C)[C@@H](CN(C)Cc1ccc(C(F)(F)F)cc1)O2 | -0.03% (inactive) |
| C[C@@H]1CN([C@@H](C)CO)C(=O)c2cc(NC(=O)Nc3ccccc3)ccc2O[C@@H]1CN(C)C(=O)Nc1ccc(C(F)(F)F)cc1 | 0.807% (inactive) |
| Cc1ccc(S(=O)(=O)NC(Cc2ccccc2)C(=O)O)cc1C (configuration not stated) | -0.133% (inactive) |
| COc1ccc(C#Cc2ccc3c(c2)O[C@@H](CN(C)C(=O)Nc2cccc(OC)c2)[C@H](C)CN([C@@H](C)CO)S3(=O)=O)cc1 | 4.46% (inactive) |
| C[C@@H]1CN([C@@H](C)CO)C(=O)Cc2cc(NC(=O)CCCCCC(=O)Nc3ccccc3N)ccc2O[C@@H]1CN(C)C(=O)Nc1ccc2c(c1)OCO2 | 0.042% (inactive) |
| C[C@H]1CN([C@@H](C)CO)C(=O)c2cccc(NC(=O)C3CCOCC3)c2O[C@H]1CN(C)Cc1ccc(Oc2ccccc2)cc1 | 0.01% (inactive) |
| C[C@H]1CN([C@@H](C)CO)C(=O)c2cc(N(C)C)ccc2O[C@H]1CN(C)S(=O)(=O)c1cn(C)cn1 | 0.81% (inactive) |
| C[C@H]1CN([C@@H](C)CO)C(=O)c2cc(NC(=O)CCCCCC(=O)Nc3ccccc3N)ccc2O[C@H]1CN(C)C(=O)Nc1ccc(F)cc1 | 0.137% (inactive) |
| C[C@H]1CN([C@@H](C)CO)C(=O)Cc2cc(NC(=O)Nc3cccc4ccccc34)ccc2O[C@@H]1CN(C)C(=O)Nc1ccc(C(F)(F)F)cc1 | 14.8% (inactive) |
| C[C@H](CO)N1C[C@H](C)[C@@H](CN(C)Cc2ccccc2)Oc2c(NC(=O)C3CC3)cccc2C1=O | -0.084% (inactive) |
| COc1ccc(S(=O)(=O)Nc2ccc3c(c2)CC(=O)N([C@H](C)CO)C[C@@H](C)[C@@H](CN(C)C(=O)NC2CCCCC2)O3)cc1 | 0.114% (inactive) |
| Cc1cc(C)c2sc(NNC(=O)C3COc4ccccc4O3)nc2c1 (configuration not stated) | 0.141% (inactive) |
| Cc1ccc(NCC(=O)N2CCN(S(=O)(=O)c3ccccc3)CC2)cc1F | 0.075% (inactive) |

| SMILES | activation |
| --- | --- |
| CCn1c(CNc2ccc(Cl)cc2)nnc1SCC#N | -0.124% (inactive) |
| Cc1cc(C)cc(NC(=O)Nc2ccc(-n3ccc(C(F)(F)F)n3)cc2)c1 | 0.075% (inactive) |
| C[C@@H]1CN([C@@H](C)CO)C(=O)Cc2cc(NC(=O)NC3CCCCC3)ccc2O[C@H]1CN(C)C(=O)Nc1ccc2c(c1)OCO2 | 16.7% (inactive) |
| C[C@H]1CN([C@@H](C)CO)C(=O)Cc2cc(NC(=O)c3ccncc3)ccc2O[C@H]1CN(C)Cc1ccc(C(=O)Nc2ccccc2N)cc1 | 6.93% (inactive) |
| C[C@@H]1CN([C@H](C)CO)C(=O)c2cccc(NS(C)(=O)=O)c2O[C@@H]1CN(C)Cc1ccncc1 | -0.083% (inactive) |
| CCOc1ccc(NC(=O)CNC(=O)c2ccc(OC)cc2)cc1 | 0.033% (inactive) |
| COc1ccc(N2C(=O)c3ccccc3C(C)(C)C2=O)cc1 | -0.152% (inactive) |
| COc1ccc(S(=O)(=O)N(C)C[C@H]2Oc3c(NC(=O)Nc4c(C)noc4C)cccc3C(=O)N([C@@H](C)CO)C[C@H]2C)cc1 | -0.174% (inactive) |
| COc1ccc(S(=O)(=O)N(C)C[C@@H]2Oc3ccc(NC(=O)c4ccncc4)cc3C(=O)N([C@@H](C)CO)C[C@@H]2C)cc1 | -0.183% (inactive) |
| Cc1cccc(CC(=O)Nc2sc(C(C)C)cc2C(=O)N2CCOCC2)c1 | 0.007% (inactive) |
| C/C=C/c1ccc2c(c1)O[C@H](CN(C)C(=O)CC)[C@@H](C)CN([C@H](C)CO)S2(=O)=O | 25.5% (inactive) |
| N#Cc1ccc(-c2csc(NC3=NCCCCC3)n2)cc1 | -0.002% (inactive) |
| C[C@@H]1CN([C@H](C)CO)S(=O)(=O)c2ccc(-c3ccccc3)cc2O[C@H]1CN(C)S(C)(=O)=O | -0.007% (inactive) |
| Cc1cc(C)nc(NC(N)=NC(C)c2ccccc2)n1 (configuration not stated) | -0.07% (inactive) |
| CCc1ccc(C(C(=O)NC2CCCCC2)N(C(=O)c2csnn2)C2CC2)cc1 (configuration not stated) | -0.021% (inactive) |
| O=C(c1cc(COc2ccc(F)cc2Cl)on1)N(Cc1ccncc1)CC1CCCO1 (configuration not stated) | -0.279% (inactive) |
| Cc1ccc(NC(=O)CN2CCOCC2)cc1Cl | 0.043% (inactive) |
| Nc1nnc(SCc2nnc(-c3ccccc3)o2)s1 | 0.69% (inactive) |
| OC(Cc1ccccc1Br)c1ncc(-c2ccc(Cl)cc2)[nH]1 (configuration not stated) | 1.34% (inactive) |
| CCC(CC)NC(=O)Nc1ccc(F)c(Cl)c1 | 0.516% (inactive) |
| C[C@H](CO)N1C[C@H](C)[C@@H](CN(C)Cc2ccc(Oc3ccccc3)cc2)Oc2ccc(NC(=O)Nc3ccc(C(F)(F)F)cc3)cc2C1=O | 0.27% (inactive) |
| COc1ccc(NC(=O)Nc2cccc3c2O[C@H](CN(C)C(=O)NC2CCCCC2)[C@H](C)CN([C@H](C)CO)C3=O)cc1 | 0.915% (inactive) |
| COc1ccc(CN(C)C[C@@H]2Oc3ccc(N(C)C)cc3CC(=O)N([C@@H](C)CO)C[C@@H]2C)cc1 | -0.012% (inactive) |

| SMILES | activation |
| --- | --- |
| C[C@@H]1CN([C@@H](C)CO)C(=O)c2cc(NS(=O)(=O)c3cccs3)ccc2O[C@@H]1CN(C)S(C)(=O)=O | -0.005% (inactive) |
| C[C@H]1CN([C@@H](C)CO)C(=O)Cc2cc(NC(=O)c3ccncc3)ccc2O[C@H]1CN(C)C(=O)Nc1ccc(C(F)(F)F)cc1 | 0.212% (inactive) |
| C[C@@H]1CN([C@H](C)CO)C(=O)c2cccc(NC(=O)Nc3ccc(F)cc3)c2O[C@@H]1CN(C)S(=O)(=O)c1cn(C)cn1 | -0.066% (inactive) |
| Cc1ccccc1CCN1CCCC(CN(C)C(=O)c2ccc3ncccc3c2)C1 (configuration not stated) | 36.6% (inactive) |
| COc1ccc2sc(-c3ccccc3OC)c(-c3ccc(O)cc3)c2c1 | -0.095% (inactive) |
| Cc1noc(C)c1S(=O)(=O)N(C)C[C@H]1Oc2ccc(NS(C)(=O)=O)cc2CC(=O)N([C@@H](C)CO)C[C@H]1C | 0.259% (inactive) |
| CC(C)CCNC(=O)[C@H](Cc1ccccc1)N1Cc2ccccc2C1=O | 0.131% (inactive) |
| CC(C)NC(=O)N(C)C[C@@H]1Oc2ccc(NC(=O)CCCN(C)C)cc2C(=O)N([C@@H](C)CO)C[C@H]1C | -0.112% (inactive) |
| CC(C)(C)c1ccc(C(=O)Nc2ccc3c(c2)C(=O)NC3=O)cc1 | 0.042% (inactive) |
| c1ccc(-c2ccccc2OCCOCCN2CCNCC2)cc1 | 0.084% (inactive) |
| CC12CCC(=O)N1C(C(=O)Nc1cc(Cl)ccc1N1CCOCC1)CS2 (configuration not stated) | -0.124% (inactive) |
| O=C(COc1ccc(Cl)cc1)Nc1nnc(S(=O)(=O)N2CCCCCC2)s1 | 1.11% (inactive) |
| Cc1noc(C)c1S(=O)(=O)N(C)C[C@@H]1Oc2ccc(NC(=O)Nc3ccc(F)cc3)cc2CC(=O)N([C@H](C)CO)C[C@H]1C | -0.155% (inactive) |
| C[C@@H]1CN([C@H](C)CO)C(=O)c2cc(NC(=O)CCN3CCOCC3)ccc2O[C@@H]1CN(C)Cc1ccc(C(F)(F)F)cc1 | -0.028% (inactive) |
| C[C@H]1CN([C@@H](C)CO)C(=O)Cc2cc(NC(=O)NC3CCCCC3)ccc2O[C@@H]1CN(C)Cc1ccc(Cl)c(Cl)c1 | 0.088% (inactive) |
| CCCCSCCCNC(=O)C1CCC(CNS(=O)(=O)c2ccc(NC(C)=O)cc2)CC1 (configuration not stated) | 0.405% (inactive) |
| COc1ccc(NC(=O)N(C)C[C@@H]2Oc3ccc(NC(=O)Cc4ccccc4)cc3CC(=O)N([C@H](C)CO)C[C@H]2C)cc1 | -0.201% (inactive) |
| C[C@@H]1CN([C@H](C)CO)C(=O)Cc2cc(NC(=O)Nc3ccc4c(c3)OCO4)ccc2O[C@H]1CN(C)Cc1ccc(Cl)c(Cl)c1 | 0.291% (inactive) |
| COc1ccc(C(=O)N2CC(c3ccccc3)CC2=O)cc1 (configuration not stated) | -0.124% (inactive) |
| C[C@H]1CN([C@@H](C)CO)C(=O)c2cc(NC(=O)C3CCCCC3)ccc2O[C@H]1CN(C)Cc1ccc(C(=O)Nc2ccccc2N)cc1 | 4.92% (inactive) |
| C[C@@H]1CN([C@H](C)CO)C(=O)c2cccc(NS(=O)(=O)c3cn(C)cn3)c2O[C@@H]1CN(C)Cc1ccc(Cl)c(Cl)c1 | 0.02% (inactive) |

same assay, conditions: HUVEC E-selectin immunostaining, at 21 µM (top of the series), percent of TNF-alpha response over vehicle

| SMILES | activation |
| --- | --- |
| C[C@@H]1CN([C@H](C)CO)C(=O)Cc2cc(NC(=O)Nc3ccc(F)cc3)ccc2O[C@@H]1CN(C)S(=O)(=O)c1ccc(Cl)cc1 | 0.732% (inactive) |
| C[C@@H]1CN([C@H](C)CO)C(=O)c2cc(NC(=O)C3CCCCC3)ccc2O[C@H]1CN(C)C(=O)Nc1ccc2c(c1)OCO2 | 4.77% (inactive) |
| C[C@H](CO)N1C[C@H](C)[C@H](CN(C)S(C)(=O)=O)Oc2ccc(NC(=O)C3CCCCC3)cc2C1=O | -0.059% (inactive) |
| CC(C)NC(=O)N(C)C[C@H]1Oc2ccc(NC(=O)CCC(F)(F)F)cc2CC(=O)N([C@@H](C)CO)C[C@H]1C | 5.5% (inactive) |
